Results as given in the supplement of paper PMC10307832.

Experiments:
Test in all cases: relative viability (nuclei count vs DMSO), 5 days (fraction); higher = more cells survive
[1] = tested on: NCI-H1944
Summary of the method: (§1)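 Medians of duplicate plates are given as relative viability. That measure is the nuclei count in treated wells divided by the count in vehicle wells. Counts were taken on 4× images of lung cancer cell lines in 1536-well plates, 5 days after pin-tool dosing the day after seeding with one drug alone or a fixed anchor-drug dose plus five library-drug doses (not always all listed) in √10 steps.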

[2] = tested on: NCI-H460
Summary of the method: as §1

[3] = tested on: NCI-H2405
Summary of the method: as §1

[4] = tested on: ChaGo-K-1
Summary of the method: as §1

[5] = tested on: NCI-H3122
Summary of the method: as §1

[6] = tested on: RERF-LC-KJ
Summary of the method: as §1

[7] = tested on: CAL-12T
Summary of the method: as §1

[8] = tested on: NCI-H2087
Summary of the method: as §1

[9] = tested on: NCI-H1651
Summary of the method: as §1

[10] = tested on: NCI-H1755
Summary of the method: as §1

[11] = tested on: ABC-1
Summary of the method: as §1

[12] = tested on: UMC-11
Summary of the method: as §1

[13] = tested on: LU99A
Summary of the method: as §1

[14] = tested on: LOU-NH91
Summary of the method: as §1

[15] = tested on: NCI-H1793
Summary of the method: as §1

[16] = tested on: PC-3 [JPC-3]
Summary of the method: as §1

[17] = tested on: LC-2-ad
Summary of the method: as §1

[18] = tested on: NCI-H1395
Summary of the method: as §1

[19] = tested on: NCI-H2170
Summary of the method: as §1

[20] = tested on: NCI-H2228
Summary of the method: as §1

Cc1sc2c(c1C)C(c1ccc(Cl)cc1)=N[C@@H](CC(=O)OC(C)(C)C)c1nnc(C)n1-2 [JQ1] + CCNC(=O)c1noc(-c2cc(C(C)C)c(O)cc2O)c1-c1ccc(CN2CCOCC2)cc1 [Luminespib] (partner 0.01 µM)
relative viability ([1]; first compound 0.04 µM): 0.73 | relative viability ([1]; first compound 0.1265 µM): 0.632 | relative viability ([1]; first compound 0.4 µM): 0.451 | relative viability ([1]; first compound 1.265 µM): 0.37 | relative viability ([1]; first compound 4 µM): 0.353 | relative viability ([2]; first compound 0.04 µM): 0.031 | relative viability ([2]; first compound 0.1265 µM): 0.0279 | relative viability ([2]; first compound 0.4 µM): 0.0618 | relative viability ([2]; first compound 1.265 µM): 0.032 | relative viability ([2]; first compound 4 µM): 0.0328 | relative viability ([3]; first compound 0.04 µM): 0.795 | relative viability ([3]; first compound 0.1265 µM): 0.637 | relative viability ([3]; first compound 0.4 µM): 0.963 | relative viability ([3]; first compound 1.265 µM): 0.719 | relative viability ([3]; first compound 4 µM): 0.655 | relative viability ([4]; first compound 0.04 µM): 0.77 | relative viability ([4]; first compound 0.1265 µM): 0.503 | relative viability ([4]; first compound 0.4 µM): 0.452 | relative viability ([4]; first compound 1.265 µM): 0.322 | relative viability ([4]; first compound 4 µM): 0.285 | relative viability ([5]; first compound 0.04 µM): 0.0811 | relative viability ([5]; first compound 0.1265 µM): 0.0744 | relative viability ([5]; first compound 0.4 µM): 0.162 | relative viability ([5]; first compound 1.265 µM): 0.0911 | relative viability ([5]; first compound 4 µM): 0.131 | relative viability ([6]; first compound 0.04 µM): 1.25 | relative viability ([6]; first compound 0.1265 µM): 1.07 | relative viability ([6]; first compound 0.4 µM): 1.04 | relative viability ([6]; first compound 1.265 µM): 0.668 | relative viability ([6]; first compound 4 µM): 0.414 | relative viability ([7]; first compound 0.04 µM): 0.364 | relative viability ([7]; first compound 0.1265 µM): 0.184 | relative viability ([7]; first compound 0.4 µM): 0.367 | relative viability ([7]; first compound 1.265 µM): 0.134 | relative viability ([7]; first compound 4 µM): 0.146 | relative viability ([8]; first compound 0.04 µM): 0.122 | relative viability ([8]; first compound 0.1265 µM): 0.171 | relative viability ([8]; first compound 0.4 µM): 0.173 | relative viability ([8]; first compound 1.265 µM): 0.129 | relative viability ([8]; first compound 4 µM): 0.178 | relative viability ([9]; first compound 0.04 µM): 0.865 | relative viability ([9]; first compound 0.1265 µM): 0.997 | relative viability ([9]; first compound 0.4 µM): 0.768 | relative viability ([9]; first compound 1.265 µM): 0.369 | relative viability ([9]; first compound 4 µM): 0.375 | relative viability ([10]; first compound 0.04 µM): 0.645 | relative viability ([10]; first compound 0.1265 µM): 0.283 | relative viability ([10]; first compound 0.4 µM): 0.539 | relative viability ([10]; first compound 1.265 µM): 0.393 | relative viability ([10]; first compound 4 µM): 0.442 | relative viability ([11]; first compound 0.04 µM): 0.612 | relative viability ([11]; first compound 0.1265 µM): 0.286 | relative viability ([11]; first compound 0.4 µM): 0.479 | relative viability ([11]; first compound 1.265 µM): 0.192 | relative viability ([11]; first compound 4 µM): 0.267 | relative viability ([12]; first compound 0.04 µM): 0.865 | relative viability ([12]; first compound 0.1265 µM): 0.83 | relative viability ([12]; first compound 0.4 µM): 0.336 | relative viability ([12]; first compound 1.265 µM): 0.278 | relative viability ([12]; first compound 4 µM): 0.219 | relative viability ([13]; first compound 0.04 µM): 0.285 | relative viability ([13]; first compound 0.1265 µM): 0.246 | relative viability ([13]; first compound 0.4 µM): 0.266 | relative viability ([13]; first compound 1.265 µM): 0.173 | relative viability ([13]; first compound 4 µM): 0.179 | relative viability ([14]; first compound 0.04 µM): 0.371 | relative viability ([14]; first compound 0.1265 µM): 0.371 | relative viability ([14]; first compound 0.4 µM): 0.31 | relative viability ([14]; first compound 1.265 µM): 0.285 | relative viability ([14]; first compound 4 µM): 0.271 | relative viability ([15]; first compound 0.04 µM): 0.155 | relative viability ([15]; first compound 0.1265 µM): 0.209 | relative viability ([15]; first compound 0.4 µM): 0.197 | relative viability ([15]; first compound 1.265 µM): 0.318 | relative viability ([15]; first compound 4 µM): 0.253 | relative viability ([16]; first compound 0.04 µM): 0.82 | relative viability ([16]; first compound 0.1265 µM): 0.716 | relative viability ([16]; first compound 0.4 µM): 0.614 | relative viability ([16]; first compound 1.265 µM): 0.443 | relative viability ([16]; first compound 4 µM): 0.302 | relative viability ([17]; first compound 0.04 µM): 0.892 | relative viability ([17]; first compound 0.1265 µM): 0.58 | relative viability ([17]; first compound 0.4 µM): 0.576 | relative viability ([17]; first compound 1.265 µM): 0.395 | relative viability ([17]; first compound 4 µM): 0.331 | relative viability ([18]; first compound 0.04 µM): 0.761 | relative viability ([18]; first compound 0.1265 µM): 0.681 | relative viability ([18]; first compound 0.4 µM): 0.808 | relative viability ([18]; first compound 1.265 µM): 0.399 | relative viability ([18]; first compound 4 µM): 0.458 | relative viability ([19]; first compound 0.04 µM): 0.743 | relative viability ([19]; first compound 0.1265 µM): 0.837 | relative viability ([19]; first compound 0.4 µM): 0.572 | relative viability ([19]; first compound 1.265 µM): 0.326 | relative viability ([19]; first compound 4 µM): 0.336 | relative viability ([20]; first compound 0.04 µM): 0.148 | relative viability ([20]; first compound 0.1265 µM): 0.19 | relative viability ([20]; first compound 0.4 µM): 0.0885 | relative viability ([20]; first compound 1.265 µM): 0.112 | relative viability ([20]; first compound 4 µM): 0.103
